Measured values taken from patent US20080139388A1, “Synergistic Insecticide Mixtures” (priority 2004, published 2008).

Key:
[1] = tested on: Myzus persicae; assay: Myzus persicae test (cabbage leaf dip); format: in vivo
Description: (§1) Formula for the calculation of the kill rate of a combination of two active compounds
(§2) The expected activity for a given combination of two active compounds can be calculated (cf. COLBY, S. R.; “Calculating Synergistic and Antagonistic Responses of Herbicide Combinations”, Weeds 15, pages 20-22, 1967):
(§3) if • X=the kill rate, expressed in % of the untreated control, when employing active compound A at an application rate of m ppm, • Y=the kill rate, expressed in % of the untreated control, when employing active compound B at an application rate of n ppm, • E=the kill rate, expressed in % of the untreated control, when employing active compounds A and B at application rates of m and n ppm, then
(§4) If the actual insecticidal kill rate is higher than the calculated one, the kill rates of the combination are superadditive, i.e. a synergistic effect is present. In this case, the kill rate that is actually observed has to be higher than the value, calculated using the formula above, for the expected kill rate (E).
Solvent: 7 parts by weight of dimethylformamide Emulsifier: 2 parts by weight of alkylaryl polyglycol ether
To produce a suitable preparation of active compound, 1 part by weight of active compound is mixed with the stated amounts of solvent and emulsifier, and the concentrate is diluted with emulsifier-containing water to the desired concentration.
Cabbage leaves (Brassica oleracea) which are heavily infested by the green peach aphid (Myzus persicae) are treated by being dipped into the preparation of active compound of the desired concentration.
After the desired period of time, the kill in % is determined. 100% means that all aphids have been killed; 0% means that none of the aphids have been killed. The determined kill rates are entered into Colby's formula.

[2] = tested on: Plutella xylostella (normally sensitive strain); assay: Plutella xylostella test, normally sensitive strain (cabbage leaf dip); format: in vivo; conditions: 20 ppm
Description: as §1, §2, §3, §4
To produce a suitable preparation of active compound, 1 part by weight of active compound is mixed with the stated amounts of solvent and emulsifier, and the concentrate is diluted with emulsifier-containing water to the desired concentration. […]
After the desired period of time, the kill in % is determined. […] The determined kill rates are entered into Colby's formula (see sheet 1).

`C/C(=N\C#N)N(C)Cc1ccc(Cl)nc1` [acetamiprid] was tested, and the “Kill in % after 6 days” value ([1]; 0.16 ppm) was 30%.

For `CN/C(=N\[N+](=O)[O-])NCc1cnc(Cl)s1` [clothianidin], the “Kill in % after 1 day” value ([1]; 0.16 ppm, after 1 day (Table A2)) was 0%.

For `CNC(=O)Oc1cc(C)c(SC)c(C)c1` [methiocarb, 3,5-dimethyl-4-(methylthio)phenyl methylcarbamate], the “Kill in % after 1 day” value ([1]; 20 ppm, after 1 day (Table A2)) was 5%, the “Kill in % after 1 day” value ([1]; 20 ppm, after 1 day (Table A3)) was 5% and the “Kill in % after 6 days” value ([1]; 100 ppm) was 50%. For the same molecule, the “Kill in % after 3 days” value [2] was 0%.

With `N#C/N=C1\SCCN1Cc1ccc(Cl)nc1` [thiacloprid] the “Kill in % after 1 day” value ([1]; 0.8 ppm, after 1 day (Table A3)) was 20% and the “Kill in % after 3 days” value [2] was 0%.
